The values below are quoted from earlier work in patent US10878939B2, “Methods and compositions for personalized pain management” (Children's Hospital Medical Center, priority 2014, dated 2020).

For the data set the following is noted: other reports; cited from earlier work.

As to `CN1CC[C@]23c4c5ccc(O[C@@H]6O[C@H](C(=O)O)[C@@H](O)[C@H](O)[C@H]6O)c4O[C@H]2[C@@H](O)C=C[C@H]3[C@H]1C5` [M3G, Morphine-3-Glucuronide], the “M3G metabolite formation relative to M6G formation” value is given as 7-10 fold.
